Measured values: patent US10414763B2 (CANCER RESEARCH TECHNOLOGY LIMITED, priority 2014, dated 2019)

The compounds below were run against T1, full-length human PKCι (Homo sapiens, UniProt P41743) (assay: PKCι IC50 IMAP fluorescence polarisation assay, full-length enzyme, 150 μM ATP). Settings: read-out: IC50 in IMAP assay against full length PKCi at 150 μM ATP.
T1 construct: Recombinant, full-length human PKCι expressed in Sf21 insect cells is also commercially available; purchased EMD Millipore; host or cells: Sf21 insect cells (baculovirus)
T1 sequence (P41743 1-596): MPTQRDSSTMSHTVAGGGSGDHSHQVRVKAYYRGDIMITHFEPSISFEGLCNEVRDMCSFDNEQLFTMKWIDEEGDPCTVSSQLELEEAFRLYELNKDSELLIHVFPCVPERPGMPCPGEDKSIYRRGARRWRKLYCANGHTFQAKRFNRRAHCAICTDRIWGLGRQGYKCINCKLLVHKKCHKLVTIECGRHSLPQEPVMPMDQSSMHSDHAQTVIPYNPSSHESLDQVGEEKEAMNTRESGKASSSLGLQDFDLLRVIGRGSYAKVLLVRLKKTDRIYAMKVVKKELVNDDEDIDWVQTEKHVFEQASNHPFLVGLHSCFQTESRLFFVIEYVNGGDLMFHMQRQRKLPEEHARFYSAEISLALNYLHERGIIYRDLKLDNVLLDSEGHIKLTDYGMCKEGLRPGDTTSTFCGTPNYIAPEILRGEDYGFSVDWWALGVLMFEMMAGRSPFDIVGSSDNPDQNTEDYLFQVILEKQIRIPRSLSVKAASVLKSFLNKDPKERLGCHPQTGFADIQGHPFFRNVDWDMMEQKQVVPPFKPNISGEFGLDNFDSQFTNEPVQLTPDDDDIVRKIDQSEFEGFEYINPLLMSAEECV
Format: biochemical
In short: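 IMAP fluorescence polarisation kinase assay: 15 pM baculovirus-expressed human PKCiota with 100 nM FAM-pseudosubstrate peptide and 150 μM ATP, 1 h at 25 °C. IMAP detection reagent then 2 h at 25 °C before FP measurement. Inhibition referenced to no-compound and no-enzyme controls for IC50 fitting.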
In the case of `CN(c1nc(-c2ccnc(Nc3nc(C4CC4)cs3)c2)nc2cncc(C3CC3)c12)C1CCNCC1(C)C` (stereo not drawn) [Example 53, {5-Cyclopropyl-2-[2-(4-cyclopropyl-thiazol-2-ylamino)-pyridin-4-yl]-pyrido[3,4-d]pyrimidin-4-yl}-(3,3-dimethyl-piperidin-4-yl)-methyl-amine], the IC50 is reported as 100 to 1000 nM.
For `CN(C)CC#Cc1cc2c(-c3nc(N4CCNCC4)c4c(C5CCC5)cncc4n3)ccnc2[nH]1` [Example 55, {3-[4-(5-Cyclobutyl-4-piperazin-1-yl-pyrido[3,4-d]pyrimidin-2-yl)-1H-pyrrolo[2,3-b]pyridin-2-yl]-prop-2-ynyl}-dimethyl-amine], the IC50 was < 100 nM.
For `c1cncc(-c2cc3c(-c4nc(N5CCNCC5)c5c(C6CC6)cncc5n4)ccnc3[nH]2)c1` [Example 58, 5-Cyclopropyl-4-piperazin-1-yl-2-(2-pyridin-3-yl-1H-pyrrolo[2,3-b]pyridin-4-yl)-pyrido[3,4-d]pyrimidine], the IC50 was < 100 nM.
`c1ccc2c(c1)[nH]c1nccc(-c3nc(N4CCC5NCCC54)c4c(C5CCC5)cncc4n3)c12` (stereo not drawn) [Example 59, 4-[5-Cyclobutyl-4-(hexahydro-pyrrolo[3,2-b]pyrrol-1-yl)-pyrido[3,4-d]pyrimidin-2-yl]-9H-pyrido[2,3-b]indole] was tested, and the IC50 was < 100 nM.
`NC1CCC(Nc2nc(-c3ccnc4[nH]c5ccccc5c34)nc3cncc(C4CCC4)c23)C1` (stereo not drawn) [Example 60, N-[5-Cyclobutyl-2-(9H-pyrido[2,3-b]indol-4-yl)-pyrido[3,4-d]pyrimidin-4-yl]-cyclopentane-1,3-diamine] was tested, and the IC50 was < 100 nM.
In the case of `CN(c1nc(-c2ccnc3[nH]c(-c4cccnc4)cc23)nc2cncc(C3CC3)c12)C1CCNCC1(C)C` (stereo not drawn) [Example 61, [5-Cyclopropyl-2-(2-pyridin-3-yl-1H-pyrrolo[2,3-b]pyridin-4-yl)-pyrido[3,4-d]pyrimidin-4-yl]-(3,3-dimethyl-piperidin-4-yl)-methyl-amine], the IC50 is reported as < 100 nM.
For `O=C(NC1CCCCC1)c1cc2c(-c3nc(N4CCNCC4)c4c(C5CC5)cncc4n3)ccnc2[nH]1` [Example 62, 4-(5-Cyclopropyl-4-piperazin-1-yl-pyrido[3,4-d]pyrimidin-2-yl)-1H-pyrrolo[2,3-b]pyridine-2-carboxylic acid cyclohexylamide], the IC50 was < 100 nM.
In the case of `FC(F)(F)c1cc2c(-c3nc(N4CCCC5NCCCC54)c4c(C5CC5)cncc4n3)ccnc2[nH]1` (stereo not drawn) [Example 64, 5-Cyclopropyl-4-(octahydro-[1,5]naphthyridin-1-yl)-2-(2-trifluoromethyl-1H-pyrrolo[2,3-b]pyridin-4-yl)-pyrido[3,4-d]pyrimidine], the IC50 is reported as < 100 nM.
`O=S(=O)(Nc1cc(-c2nc(N3CCNCC3)c3c(C4CC4)cncc3n2)ccn1)c1ccc(F)cc1` [Example 65, N-[4-(5-Cyclopropyl-4-piperazin-1-yl-pyrido[3,4-d]pyrimidin-2-yl)-pyridin-2-yl]-4-fluoro-benzenesulfonamide] gave an IC50 of 100 to 1000 nM.
With `CN(c1nc(-c2ccnc3[nH]c(C(=O)NC4CCCCC4)cc23)nc2cncc(C3CC3)c12)C1CCNCC1(C)C` (stereo not drawn) [Example 66, 4-{5-Cyclopropyl-4-[(3,3-dimethyl-piperidin-4-yl)-methyl-amino]-pyrido[3,4-d]pyrimidin-2-yl}-1H-pyrrolo[2,3-b]pyridine-2-carboxylic acid cyclohexylamide] the IC50 was < 100 nM.
With `CC1(C)CNCCC1Nc1nc(-c2ccnc(Nc3ccc(F)cn3)c2)nc2cncc(C3CCC3)c12` (stereo not drawn) [Example 67, {5-Cyclobutyl-2-[2-(5-fluoro-pyridin-2-ylamino)-pyridin-4-yl]-pyrido[3,4-d]pyrimidin-4-yl}-(3,3-dimethyl-piperidin-4-yl)-amine] the IC50 was < 100 nM.
In the case of `CC1(C)CNCCC1Nc1nc(-c2ccnc(Nc3ncc(F)cc3F)c2)nc2cncc(C3CCC3)c12` (stereo not drawn) [Example 68, {5-Cyclobutyl-2-[2-(3,5-difluoro-pyridin-2-ylamino)-pyridin-4-yl]-pyrido[3,4-d]pyrimidin-4-yl}-(3,3-dimethyl-piperidin-4-yl)-amine], the IC50 is reported as < 100 nM.
